Experimental data from US6344214B1, “Method for retarding and ameliorating fever blisters and canker sores” (priority 1999, dated 2002).
Where two headings read alike, the source gives them in different places.

Columns and labels:
[1] = system: herpes Simplex virus; conditions: cited from earlier work
[2] = system: rat kidney fibroblasts; conditions: UVA light for four hours; cited from earlier work
[3] = system: rats; conditions: 400 ppm for 41 days; cited from earlier work
[4] = system: CYP1A1; conditions: dietary level 300 ppm; cited from earlier work
[5] = system: free putrescine in the epidermis; conditions: 10 ppm astaxanthin diet, 4 months; control increased 4.1-fold; cited from earlier work
[6] = system: neoplasms in the oral cavity; conditions: cited from earlier work
[7] = system: cold sores; assay: Example 1: oral astaxanthin soft gel capsules, cold sore outbreaks in one individual; format: in vivo, human
Description: (§1) Haematococcus algae meal containing 1.5% astaxanthin was thoroughly mixed with safflower oil such that the resulting suspension contained 2.0 mg of pure astaxanthin per gram of safflower oil suspension. 500 mg soft gel capsules were produced from the safflower oil suspension such that each soft gel capsule contained 1.0 mg of pure astaxanthin.
One individual was a person who has suffered from cold sore outbreaks every 4-6 weeks on average which lasted 10-14 days . This individual consumed 3.0 mg of astaxanthin (three soft gel capsules) per day for two weeks prior to an outbreak, and the symptoms lasted only 2 days instead of 2 weeks.

[8] = system: shrimp; conditions: 50 mg/kg diet, 3 months; cited from earlier work
[9] = system: chicken embryo fibroblasts (CEF); conditions: SOD, catalase, glutathione peroxidase as indices; cited from earlier work
[10] = system: rhodopsin; conditions: oral dosing, cited from earlier work
[11] = system: Atlantic salmon fry; conditions: cited from earlier work
[12] = 2 mg astaxanthin capsule, six months; placebo 21.78; P=0.047; cited from earlier work
[13] = system: neoplasms in the large intestines; conditions: rats fed astaxanthin, azoxymethane induction; cited from earlier work
[14] = system: canker sores; assay: Example 2: oral astaxanthin soft gel capsules, canker sores in one individual; format: in vivo, human
Description: as §1
A second individual was a person who had often suffered canker sores on the inside of their mouth. They had difficulty and pain eating sour and tart foods due to the condition. This individual consumed 2.0 mg of astaxanthin (two soft gel capsules) per day for three weeks and the cankers sores were alleviated. They were then able to eat sour and tart foods without suffering pain from the canker sores. When the individual stopped taking the supplement the canker sores returned within 10 days.

[15] = system: preneoplastic lesions and neoplasms in the bladder; conditions: 50-ppm astaxanthin in drinking water; cited from earlier work
[16] = 0.1% dietary astaxanthin for 30 days, cited from earlier work
[17] = in vivo; cited from earlier work
[18] = system: photoreceptor cells of the retina; conditions: 37.5 mg/kg intraperitoneal at 12 hour intervals; uninjured control 45, injured without astaxanthin 32; cited from earlier work
[19] = system: neoplastic liver lesions; conditions: dietary astaxanthin; cited from earlier work

**Q.** Which results are given for `Nc1nc2c(ncn2COCCO)c(=O)[nH]1` [acyclovir, Acyclovir]?
**A.** patients with no fever blister outbreaks ([1]; four acyclovir pills daily for 4 months): 50%; effectiveness against fever blisters ([1]; pills taken at onset of symptoms, or cream applied to blisters or tingling lip areas, separate studies): only minimally effective

**Q.** For `CC1=C[C@H](O)CC(C)(C)[C@H]1/C=C/C(C)=C/C=C/C(C)=C/C=C/C=C(C)/C=C/C=C(C)/C=C/C1=C(C)C[C@@H](O)CC1(C)C` [lutein], which “level required to restore superoxide dismutase activity” value [2] is on record?
**A.** 1000 nM

**Q.** And the “level that prevented the UVA-induced increase in TBARS” value [2]?
**A.** 1000 nM

**Q.** What about the “level that returned catalase activity to control levels” value [2] of the same compound?
**A.** 100 nM

**Q.** With `CC1=C(/C=C/C(C)=C/C=C/C(C)=C/C=C/C=C(C)/C=C/C=C(C)/C=C/C2=C(C)C(=O)[C@@H](O)CC2(C)C)C(C)(C)C[C@H](O)C1=O` [astaxanthin] as the compound, how does the “effects on body/organ weight, enzyme activities, pregnancy, litter size” value [3] read?
**A.** no harmful effects

**Q.** What about the “induction of CYP1A1” value [4] of the same compound?
**A.** strong inducer

**Q.** And the “increase of putrescine after UV irradiation” value [5]?
**A.** 1.5 fold

**Q.** What about the “incidences of preneoplastic and neoplasms in the oral cavity” value ([6]; 100-ppm dietary astaxanthin after the carcinogenic chemical induction) of the same compound?
**A.** significantly smaller

**Q.** And the oral neoplasms ([6]; astaxanthin and the chemical inducer fed at the same time)?
**A.** no oral neoplasms developed

**Q.** What about the “level required to restore superoxide dismutase activity” value [2] of the same compound?
**A.** 5 nM

**Q.** And the “level that prevented the UVA-induced increase in TBARS” value [2]?
**A.** 1 nM

**Q.** What about the “level that returned catalase activity to control levels” value [2] of the same compound?
**A.** 5 nM

**Q.** What about the “duration of cold sore symptoms” value ([7]; 3.0 mg astaxanthin per day (three soft gel capsules) for two weeks before the outbreak, earlier 10-14 days) of the same compound?
**A.** 2 days

**Q.** And the “recurrence of cold sores” value ([7]; 3.0 mg per day, earlier outbreaks every 4-6 weeks)?
**A.** has not had a another recurrence of cold sores in three months

**Q.** And the average survival rate [8]?
**A.** 87%

**Q.** What about the “protection against paraquat-induced oxidative stress” value [9] of the same compound?
**A.** observed at all levels of astaxanthin tested

**Q.** What about the retinal rhodopsin level ([10]; 6-hour post injury, control 0.75) of the same compound?
**A.** 1.15 to 1.2 nmol

**Q.** And the retinal rhodopsin level ([10]; 6 days after injury, constant through day 13, control 0.5)?
**A.** about 1.25 nmol

**Q.** And the survival rate ([11]; astaxanthin concentrations below 1 ppm in diet)?
**A.** less than 50%

**Q.** What about the survival rate ([11]; groups receiving higher concentrations) of the same compound?
**A.** greater than 90%

**Q.** And the “strength/endurance average score (knee bends with a barbell weight)” value [12]?
**A.** 61.74

**Q.** And the “incidence and multiplicity of neoplasms in the large intestines” value [13]?
**A.** significantly smaller

**Q.** And the “effect on canker sores” value ([14]; 2.0 mg astaxanthin per day (two soft gel capsules) for three weeks)?
**A.** alleviated

**Q.** What about the “time to return of canker sores after stopping the supplement” value ([14]; after stopping 2.0 mg per day) of the same compound?
**A.** ≤ 10 days

**Q.** What about the “effect on symptoms on taking the supplement again” value ([14]; same dosage, 2.0 mg per day) of the same compound?
**A.** ameliorated after approximately three weeks

**Q.** What about the “incidence of preneoplastic lesions and neoplasms in the bladder” value [15] of the same compound?
**A.** significantly reduced incidence

**Q.** And the LDL cholesterol ([16]; control diet 12.5)?
**A.** 9.6 mg/dL

**Q.** And the HDL cholesterol ([16]; control diet 42.4)?
**A.** 57 mg/dL

**Q.** What about the “crossing of the blood-brain barrier” value [17] of the same compound?
**A.** able to readily cross the blood-brain barrier

**Q.** And the “outer nuclear layer (ONL) thickness after photic injury” value [18]?
**A.** 42 microns

**Q.** What about the “number and size of neoplastic liver lesions” value [19] of the same compound?
**A.** significant influence on the reduction in number and size

**Q.** Which results are given for `CC1=C(/C=C/C(C)=C/C=C/C(C)=C/C=C/C=C(C)/C=C/C=C(C)/C=C/C2=C(C)CCCC2(C)C)C(C)(C)CCC1` [beta-carotene]?
**A.** level required to restore superoxide dismutase activity [2]: 500 nM; level that prevented the UVA-induced increase in TBARS [2]: 100 nM; level that returned catalase activity to control levels [2]: 1000 nM; average survival rate [8]: 50%
